# Reference: ChEMBL document CHEMBL3991601, “The target landscape of clinical kinase drugs” (Science, 2017)
# Activity calls are given as the source filed them. Rule as the data show it, for most assays here: actives have a measured Kd and inactives only a lower limit.
# Experiments:
# [1] = target: T1, ATP-dependent 6-phosphofructokinase, platelet type (Homo sapiens, UniProt Q01813)
# T1 sequence (Q01813 whole entry): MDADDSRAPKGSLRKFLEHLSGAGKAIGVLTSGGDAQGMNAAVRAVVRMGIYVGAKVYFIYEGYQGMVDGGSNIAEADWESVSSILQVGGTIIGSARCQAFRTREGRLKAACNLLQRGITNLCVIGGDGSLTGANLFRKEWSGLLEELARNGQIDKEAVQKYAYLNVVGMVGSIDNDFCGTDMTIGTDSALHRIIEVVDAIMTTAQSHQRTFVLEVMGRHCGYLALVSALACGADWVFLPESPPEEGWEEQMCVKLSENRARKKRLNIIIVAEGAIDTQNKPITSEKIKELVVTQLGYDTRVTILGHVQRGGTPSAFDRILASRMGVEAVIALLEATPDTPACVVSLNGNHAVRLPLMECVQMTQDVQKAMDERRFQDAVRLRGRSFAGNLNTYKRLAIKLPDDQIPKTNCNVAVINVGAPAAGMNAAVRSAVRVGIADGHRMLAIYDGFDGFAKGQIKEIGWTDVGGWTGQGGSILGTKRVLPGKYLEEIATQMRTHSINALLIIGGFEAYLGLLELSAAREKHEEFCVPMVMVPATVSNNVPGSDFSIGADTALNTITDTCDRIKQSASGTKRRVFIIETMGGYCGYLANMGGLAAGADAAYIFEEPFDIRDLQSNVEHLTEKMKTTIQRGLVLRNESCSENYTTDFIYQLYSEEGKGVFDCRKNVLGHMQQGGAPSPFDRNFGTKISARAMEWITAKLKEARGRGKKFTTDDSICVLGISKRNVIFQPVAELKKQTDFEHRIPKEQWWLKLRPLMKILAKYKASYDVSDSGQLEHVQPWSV
# [2] = target: Maternal embryonic leucine zipper kinase (Homo sapiens, UniProt Q14680)
# Maternal embryonic leucine zipper kinase, sequence (Q14680 whole entry): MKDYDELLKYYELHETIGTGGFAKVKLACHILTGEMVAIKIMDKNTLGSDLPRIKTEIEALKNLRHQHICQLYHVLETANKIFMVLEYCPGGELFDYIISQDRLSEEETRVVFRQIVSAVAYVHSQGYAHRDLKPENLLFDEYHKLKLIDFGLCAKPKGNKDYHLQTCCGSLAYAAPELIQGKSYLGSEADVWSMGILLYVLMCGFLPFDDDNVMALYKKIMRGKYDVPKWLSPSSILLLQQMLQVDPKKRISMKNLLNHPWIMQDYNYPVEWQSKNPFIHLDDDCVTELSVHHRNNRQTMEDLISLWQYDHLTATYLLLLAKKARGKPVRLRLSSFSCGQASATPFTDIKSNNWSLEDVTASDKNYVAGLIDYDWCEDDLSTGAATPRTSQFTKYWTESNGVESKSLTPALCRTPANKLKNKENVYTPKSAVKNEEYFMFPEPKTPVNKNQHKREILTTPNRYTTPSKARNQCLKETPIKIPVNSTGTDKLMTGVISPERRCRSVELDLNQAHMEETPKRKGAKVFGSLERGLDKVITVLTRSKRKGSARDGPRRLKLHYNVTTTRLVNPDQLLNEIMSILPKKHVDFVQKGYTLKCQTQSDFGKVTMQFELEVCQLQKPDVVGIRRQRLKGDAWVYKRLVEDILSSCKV
# [3] = target: cAMP-dependent protein kinase catalytic subunit beta (Homo sapiens, UniProt P22694)
# [4] = target: DnaJ homolog subfamily A member 1 (Homo sapiens, UniProt P31689)
# DnaJ homolog subfamily A member 1, sequence (P31689 whole entry): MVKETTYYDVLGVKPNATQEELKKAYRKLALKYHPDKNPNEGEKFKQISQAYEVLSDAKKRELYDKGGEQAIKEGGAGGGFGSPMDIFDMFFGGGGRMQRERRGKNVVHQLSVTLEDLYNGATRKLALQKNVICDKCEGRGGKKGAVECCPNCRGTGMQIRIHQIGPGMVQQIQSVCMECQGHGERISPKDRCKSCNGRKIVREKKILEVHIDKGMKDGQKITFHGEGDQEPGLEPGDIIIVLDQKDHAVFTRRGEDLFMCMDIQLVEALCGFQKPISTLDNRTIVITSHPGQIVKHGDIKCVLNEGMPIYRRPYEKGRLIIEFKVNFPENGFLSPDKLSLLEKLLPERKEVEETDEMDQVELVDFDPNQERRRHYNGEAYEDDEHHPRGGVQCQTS
# [5] = target: T2, Ras-related protein Rab-10 (Homo sapiens, UniProt P61026)
# T2 sequence (P61026 whole entry): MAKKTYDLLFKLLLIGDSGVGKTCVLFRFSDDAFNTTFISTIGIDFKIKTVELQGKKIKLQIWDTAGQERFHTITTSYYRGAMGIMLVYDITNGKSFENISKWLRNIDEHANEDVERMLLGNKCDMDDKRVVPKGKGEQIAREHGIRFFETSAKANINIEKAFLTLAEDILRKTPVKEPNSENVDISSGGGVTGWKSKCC
# [6] = target: T3, Serine/threonine-protein kinase TBK1 (Homo sapiens, UniProt Q9UHD2)
# T3 sequence (Q9UHD2 whole entry): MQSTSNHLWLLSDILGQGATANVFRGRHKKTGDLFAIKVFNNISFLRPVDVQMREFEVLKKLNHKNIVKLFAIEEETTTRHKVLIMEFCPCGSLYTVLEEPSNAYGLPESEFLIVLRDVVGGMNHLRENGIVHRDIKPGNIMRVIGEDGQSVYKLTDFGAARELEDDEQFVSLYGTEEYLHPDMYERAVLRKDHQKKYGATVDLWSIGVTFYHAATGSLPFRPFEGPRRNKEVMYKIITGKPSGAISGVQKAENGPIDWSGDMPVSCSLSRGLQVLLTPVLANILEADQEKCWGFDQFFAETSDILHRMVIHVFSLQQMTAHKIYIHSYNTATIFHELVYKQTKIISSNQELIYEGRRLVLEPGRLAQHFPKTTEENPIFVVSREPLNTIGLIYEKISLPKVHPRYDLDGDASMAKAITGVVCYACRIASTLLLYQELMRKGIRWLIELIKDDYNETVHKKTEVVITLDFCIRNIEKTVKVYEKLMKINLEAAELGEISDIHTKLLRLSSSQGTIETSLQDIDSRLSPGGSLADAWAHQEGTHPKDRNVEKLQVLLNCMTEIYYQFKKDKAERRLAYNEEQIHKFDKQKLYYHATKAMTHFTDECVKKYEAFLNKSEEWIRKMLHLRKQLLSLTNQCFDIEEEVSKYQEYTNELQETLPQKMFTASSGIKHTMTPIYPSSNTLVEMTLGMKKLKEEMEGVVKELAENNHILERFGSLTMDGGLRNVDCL
# [7] = target: Macrophage-stimulating protein receptor (Homo sapiens, UniProt Q04912)
# Macrophage-stimulating protein receptor, sequence (Q04912 25-304 limits assumed): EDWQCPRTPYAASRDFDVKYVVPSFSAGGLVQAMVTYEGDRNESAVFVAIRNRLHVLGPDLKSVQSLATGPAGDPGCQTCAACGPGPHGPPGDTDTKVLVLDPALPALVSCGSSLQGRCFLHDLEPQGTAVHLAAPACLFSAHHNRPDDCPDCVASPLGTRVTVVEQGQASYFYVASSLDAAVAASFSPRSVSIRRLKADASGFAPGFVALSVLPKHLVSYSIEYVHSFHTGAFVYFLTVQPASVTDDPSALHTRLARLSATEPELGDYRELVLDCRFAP
# Macrophage-stimulating protein receptor, sequence (Q04912 310-1400 limits assumed): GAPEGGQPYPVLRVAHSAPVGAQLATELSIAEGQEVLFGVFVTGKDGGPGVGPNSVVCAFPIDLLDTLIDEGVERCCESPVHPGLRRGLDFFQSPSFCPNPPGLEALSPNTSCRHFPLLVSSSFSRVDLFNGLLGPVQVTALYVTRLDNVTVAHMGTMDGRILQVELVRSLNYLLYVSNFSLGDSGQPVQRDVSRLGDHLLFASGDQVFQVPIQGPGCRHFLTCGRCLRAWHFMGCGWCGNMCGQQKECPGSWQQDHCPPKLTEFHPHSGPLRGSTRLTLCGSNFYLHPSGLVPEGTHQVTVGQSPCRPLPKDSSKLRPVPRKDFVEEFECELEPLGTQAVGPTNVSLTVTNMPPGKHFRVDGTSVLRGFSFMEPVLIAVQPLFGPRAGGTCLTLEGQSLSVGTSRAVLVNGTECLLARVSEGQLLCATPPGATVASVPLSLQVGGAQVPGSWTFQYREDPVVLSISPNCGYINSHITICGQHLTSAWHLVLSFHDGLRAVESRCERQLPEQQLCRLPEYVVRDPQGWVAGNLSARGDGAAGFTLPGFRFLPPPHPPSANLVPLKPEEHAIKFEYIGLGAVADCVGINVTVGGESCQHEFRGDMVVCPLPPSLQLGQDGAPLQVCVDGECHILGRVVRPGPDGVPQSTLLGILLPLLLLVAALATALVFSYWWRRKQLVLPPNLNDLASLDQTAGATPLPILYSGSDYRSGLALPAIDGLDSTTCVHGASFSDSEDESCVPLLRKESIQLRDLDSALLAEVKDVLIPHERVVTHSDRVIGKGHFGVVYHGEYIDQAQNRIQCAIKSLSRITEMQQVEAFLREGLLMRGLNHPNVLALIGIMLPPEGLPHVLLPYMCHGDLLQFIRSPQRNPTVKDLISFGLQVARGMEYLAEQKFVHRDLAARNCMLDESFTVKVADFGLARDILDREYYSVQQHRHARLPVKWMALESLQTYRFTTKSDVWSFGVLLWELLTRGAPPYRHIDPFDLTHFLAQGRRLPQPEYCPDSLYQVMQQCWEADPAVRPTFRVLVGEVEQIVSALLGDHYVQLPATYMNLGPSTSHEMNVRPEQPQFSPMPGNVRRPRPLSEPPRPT
# [8] = target: T4, Dual specificity mitogen-activated protein kinase kinase 3 (Homo sapiens, UniProt P46734)
# T4 sequence (P46734 whole entry): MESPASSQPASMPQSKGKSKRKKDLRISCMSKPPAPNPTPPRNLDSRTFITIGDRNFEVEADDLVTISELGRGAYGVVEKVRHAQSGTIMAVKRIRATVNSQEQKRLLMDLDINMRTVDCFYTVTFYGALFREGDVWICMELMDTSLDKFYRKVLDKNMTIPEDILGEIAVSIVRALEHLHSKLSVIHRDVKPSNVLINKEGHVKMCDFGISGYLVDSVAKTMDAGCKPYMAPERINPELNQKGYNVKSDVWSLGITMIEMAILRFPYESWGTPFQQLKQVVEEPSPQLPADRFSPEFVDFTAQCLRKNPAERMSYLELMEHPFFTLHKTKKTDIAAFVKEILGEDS
# [9] = target: T5, Serine/threonine-protein kinase ULK3 (Homo sapiens, UniProt Q6PHR2)
# T5 sequence (Q6PHR2 whole entry): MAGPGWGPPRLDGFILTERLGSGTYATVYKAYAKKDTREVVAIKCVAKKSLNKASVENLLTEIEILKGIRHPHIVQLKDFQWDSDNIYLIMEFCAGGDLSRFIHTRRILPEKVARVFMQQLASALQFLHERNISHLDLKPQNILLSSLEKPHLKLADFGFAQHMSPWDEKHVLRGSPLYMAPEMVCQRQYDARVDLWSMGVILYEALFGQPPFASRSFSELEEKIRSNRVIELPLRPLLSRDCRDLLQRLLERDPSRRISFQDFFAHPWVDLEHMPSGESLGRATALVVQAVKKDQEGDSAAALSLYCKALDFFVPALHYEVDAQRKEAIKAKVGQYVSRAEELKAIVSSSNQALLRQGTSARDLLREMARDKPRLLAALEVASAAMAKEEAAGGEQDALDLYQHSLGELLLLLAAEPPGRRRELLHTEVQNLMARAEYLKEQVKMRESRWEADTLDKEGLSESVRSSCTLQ
# Also: in the data inactive means no Kd found up to 30 µM.
Kd [1],Kd [2],Kd [3],Kd [4],Kd [5],Kd [6],Kd [7],Kd [8],Kd [9],SMILES
> 30 µM (inactive),> 30 µM (inactive),> 30 µM (inactive),> 30 µM (inactive),> 30 µM (inactive),> 30 µM (inactive),> 30 µM (inactive),> 30 µM (inactive),> 30 µM (inactive),CCN1CCN(Cc2ccc(Nc3ncc(F)c(-c4cc(F)c5nc(C)n(C(C)C)c5c4)n3)nc2)CC1 [ABEMACICLIB]
> 30 µM (inactive),> 30 µM (inactive),> 30 µM (inactive),> 30 µM (inactive),> 30 µM (inactive),> 30 µM (inactive),> 30 µM (inactive),> 30 µM (inactive),> 30 µM (inactive),O=c1[nH]c([C@@H]2CCCN2)nc2c1oc1ccc(Cl)cc12
> 30 µM (inactive),> 30 µM (inactive),> 30 µM (inactive),> 30 µM (inactive),> 30 µM (inactive),> 30 µM (inactive),> 30 µM (inactive),> 30 µM (inactive),> 30 µM (inactive),O=C(O)c1ccc2c(c1)nc(Nc1cccc(Cl)c1)c1ccncc12 [SILMITASERTIB]
> 30 µM (inactive),> 30 µM (inactive),> 30 µM (inactive),> 30 µM (inactive),> 30 µM (inactive),> 30 µM (inactive),> 30 µM (inactive),> 30 µM (inactive),> 30 µM (inactive),CCc1cc2c(cc1N1CCC(N3CCOCC3)CC1)C(C)(C)c1[nH]c3cc(C#N)ccc3c1C2=O [ALECTINIB]
> 30 µM (inactive),> 30 µM (inactive),> 30 µM (inactive),> 30 µM (inactive),> 30 µM (inactive),> 30 µM (inactive),> 30 µM (inactive),> 30 µM (inactive),> 30 µM (inactive),C#Cc1cccc(Nc2ncnc3cc4c(cc23)OCCOCCOCCO4)c1 [ICOTINIB]
> 30 µM (inactive),> 30 µM (inactive),> 30 µM (inactive),> 30 µM (inactive),> 30 µM (inactive),> 30 µM (inactive),> 30 µM (inactive),> 30 µM (inactive),> 30 µM (inactive),CC(C)(O)CC(=O)NCCn1ccc2ncnc(Nc3ccc(Oc4cccc(C(F)(F)F)c4)c(Cl)c3)c21 [TAK-285]
0.983 µM (active),> 30 µM (inactive),> 30 µM (inactive),> 30 µM (inactive),> 30 µM (inactive),> 30 µM (inactive),> 30 µM (inactive),> 30 µM (inactive),> 30 µM (inactive),CNC(=O)c1cccc(-c2ccc3c(N4CCOC[C@@H]4C)nc(N4CCOC[C@@H]4C)nc3n2)c1 [VISTUSERTIB]
> 30 µM (inactive),> 30 µM (inactive),> 30 µM (inactive),> 30 µM (inactive),> 30 µM (inactive),> 30 µM (inactive),> 30 µM (inactive),> 30 µM (inactive),> 30 µM (inactive),COc1cc2ncnc3c2cc1OCCCCCN(C)Cc1ccc(Br)cc1N3 [JNJ-26483327]
> 30 µM (inactive),> 30 µM (inactive),1.21 µM (active),> 30 µM (inactive),> 30 µM (inactive),> 30 µM (inactive),> 30 µM (inactive),> 30 µM (inactive),> 30 µM (inactive),COc1cccc(Nc2ncnn3ccc(CN4CC[C@@H](N)[C@H](O)C4)c23)c1 [BMS-690514]

SMILES,Kd [1],Kd [2],Kd [3],Kd [4],Kd [5],Kd [6],Kd [7],Kd [8],Kd [9]
COc1cc(F)c(F)c(Nc2ccc(I)cc2F)c1NS(=O)(=O)C1(C[C@H](O)CO)CC1 [REFAMETINIB],> 30 µM (inactive),> 30 µM (inactive),> 30 µM (inactive),> 30 µM (inactive),> 30 µM (inactive),> 30 µM (inactive),> 30 µM (inactive),> 30 µM (inactive),> 30 µM (inactive)
CC1(COc2ccc3c(c2)ncn3-c2ccc3cccc(N4CCC(N)CC4)c3n2)COC1 [CRENOLANIB],> 30 µM (inactive),4.23 µM (active),> 30 µM (inactive),> 30 µM (inactive),> 30 µM (inactive),> 30 µM (inactive),> 30 µM (inactive),> 30 µM (inactive),> 30 µM (inactive)
Cc1c(NC(=O)OC[C@@H]2COCCN2)cn2ncnc(Nc3ccc4c(cnn4Cc4cccc(F)c4)c3)c12 [AC-480],> 30 µM (inactive),> 30 µM (inactive),> 30 µM (inactive),> 30 µM (inactive),> 30 µM (inactive),> 30 µM (inactive),> 30 µM (inactive),> 30 µM (inactive),> 30 µM (inactive)
COCCN1CCN(Cc2ccc(-c3n[nH]c4c3C(=O)c3c(NC(=O)NN5CCOCC5)cccc3-4)cc2)CC1 [RGB-286638],> 30 µM (inactive),1.46 µM (active),> 30 µM (inactive),> 30 µM (inactive),> 30 µM (inactive),2.01 µM (active),> 30 µM (inactive),> 30 µM (inactive),> 30 µM (inactive)
Cc1c(Cn2c(C)nc3c(C(=O)O)cc(N4CCOCC4)cc32)cccc1C(F)(F)F [GSK-2636771],> 30 µM (inactive),> 30 µM (inactive),> 30 µM (inactive),> 30 µM (inactive),> 30 µM (inactive),> 30 µM (inactive),> 30 µM (inactive),> 30 µM (inactive),> 30 µM (inactive)
NC[C@@](O)(c1ccc(Cl)cc1)c1ccc(-c2cn[nH]c2)cc1 [AT-13148],> 30 µM (inactive),> 30 µM (inactive),0.014 µM (active),> 30 µM (inactive),> 30 µM (inactive),> 30 µM (inactive),> 30 µM (inactive),> 30 µM (inactive),> 30 µM (inactive)
